Laboratory results published in patent US20260116921A1, “PEPTIDE INHIBITORS OF INTERLEUKIN-23 RECEPTOR AND THEIR USE TO TREAT INFLAMMATORY DISEASES” (priority 2018, published 2026).
Where two headings read alike, the source gives them in different places. One block for each molecule: values may come before it. Bridge positions count the residues as written; N and C are the ends. Square brackets hold non-standard residues; d marks the D form. Trp(4-OMe) = COc1cccc2[nH]cc(C[C@H](N)C(=O)O)c12; Trp(5-Cl) = N[C@@H](Cc1c[nH]c2ccc(Cl)cc12)C(=O)O; Trp(5-OH) = N[C@@H](Cc1c[nH]c2ccc(O)cc12)C(=O)O; AEF = NCCOc1ccc(C[C@H](N)C(=O)O)cc1; αMeL = CC(C)C[C@](C)(N)C(=O)O; Pen = CC(C)(S)[C@H](N)C(=O)O

Experiments:
[1] = in vitro; conditions: human, 20% fecal homogenate (supernatant), anaerobic, pH 6.8
[2] = system: NK cells; assay: NK cell based assay (IL-23/IL-18-induced IFNγ, Quantikine ELISA); conditions: human primary NK cells, IL-23 at EC50 to EC75 + IL-18 10 ng/mL, IFNγ after 20 to 24 hours
Summary of the method: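 Human NK cells were negatively selected from healthy-donor peripheral blood and expanded for 7 days in FBS-supplemented RPMI 1640 with IL-2 (25 ng/mL). IFNγ in the supernatant was quantified by ELISA after 20 to 24 hours.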

[3] = Stability in simulated gastric fluid (SGF); format: in vitro ADME; conditions: pig (pepsin), simulated gastric fluid (SGF) with porcine pepsin, pH=2, 37° C., 20 μM peptide, read-out: SGF t½ (converted)
[4] = in vitro; conditions: both, SD, rat, plasma (EDTA)
[5] = in vitro; format: in vitro ADME; set-up: half-life: dose or concentration left out as unconfirmed; conditions: pH 6.8, 37° C., § matrix is 100 fold dilution of standard SIF concentration; for SIF t½: simulated intestinal fluid, pancreatin; for half-life: simulated intestinal fluid (SIF) with pancreatin, read-out: SIF t½ (converted)
[6] = in vitro; conditions: cynomolgus monkey, 20% fecal homogenate (supernatant), anaerobic, pH 6.8
[7] = molecular target: T1, IL-23R (Homo sapiens, UniProt Q5VWK5); assay: DB cells IL23R pSTAT3 cell assay (pStat3 HTRF); format: cell-based
T1 sequence (Q5VWK5 24-629): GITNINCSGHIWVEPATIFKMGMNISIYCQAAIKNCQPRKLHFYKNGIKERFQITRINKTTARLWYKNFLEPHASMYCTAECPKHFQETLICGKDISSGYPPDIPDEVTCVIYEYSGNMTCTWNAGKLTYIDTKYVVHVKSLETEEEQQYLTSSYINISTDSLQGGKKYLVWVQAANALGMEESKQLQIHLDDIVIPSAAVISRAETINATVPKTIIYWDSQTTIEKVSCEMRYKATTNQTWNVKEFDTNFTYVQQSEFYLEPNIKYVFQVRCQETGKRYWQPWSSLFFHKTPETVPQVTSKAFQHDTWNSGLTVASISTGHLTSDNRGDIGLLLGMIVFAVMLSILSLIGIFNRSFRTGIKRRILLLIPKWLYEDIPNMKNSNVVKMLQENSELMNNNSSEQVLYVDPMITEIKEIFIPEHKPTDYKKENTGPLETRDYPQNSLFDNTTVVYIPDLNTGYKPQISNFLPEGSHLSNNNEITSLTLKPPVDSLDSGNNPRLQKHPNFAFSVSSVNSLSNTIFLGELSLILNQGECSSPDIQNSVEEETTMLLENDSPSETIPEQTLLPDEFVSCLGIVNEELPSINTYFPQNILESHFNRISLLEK
Summary of the method: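 DB cells (5×10E5/well, RPMI-1640 + 10% FBS) stimulated with 0.5 nM final IL-23 plus serially diluted test peptides for 30 min at 37 °C, 5% CO2. Phospho-STAT3 (Tyr705) in lysates measured by HTRF using a two-plate protocol.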

[8] = 20% human fecal homogenate, 37° C., 20 μM
[9] = 20% cynomolgus monkey fecal homogenate, 37° C., 20 μM
[10] = molecular target: T2, IL-23R (human, UniProt Q5VWK5 24-629); assay: cell-based or functional assay
T2 sequence (looked up): T1 sequence (Q5VWK5 24-629)

[11] = molecular target: T2, IL-23R; assay: cell-based or functional assay; remark: listed apart in the source
[12] = Table E3, DB cells, IL-23 0.5 nM, 30 minutes at 37° C., read-out: pStat3 HTRF (IC50)

Molecule: CC(=O)NCCCC[C@H](NC(=O)[C@](C)(CC(C)C)NC(=O)[C@H](Cc1ccc2ccccc2c1)NC(=O)[C@H](Cc1ccc(OCCN)cc1)NC(=O)[C@H]1NC(=O)[C@H](CCC(N)=O)NC(=O)[C@H](Cc2c[nH]c3c(C)cccc23)NC(=O)[C@H]([C@@H](C)O)NC(=O)[C@H](CC(N)=O)NC(=O)[C@@H](NC(C)=O)C(C)(C)SSC1(C)C)C(=O)N[C@@H](CC(N)=O)C(=O)N[C@@H](CC(N)=O)C(N)=O [compound 6]
half-life at 20 μM [1]: 17 h
IC50 [2]: < 10 nM
half-life at 20 μM [3]: 12 h
half-life at 20 μM [4]: < 1 h
SIF t½ [5]: 24 h
half-life at 20 μM [6]: 4 h
IC50 [7]: < 1 nM

Molecule: CC(=O)N[C@H]1CCSC[C@@H](C(=O)N[C@@H](Cc2ccc(OCCN)cc2)C(=O)N[C@@H](Cc2ccc3ccccc3c2)C(=O)NC2(C(=O)N[C@@H](CCC(=O)O)C(=O)N[C@@H](CC(N)=O)C(=O)N[C@@H](CC(N)=O)C(N)=O)CCOCC2)NC(=O)[C@H](CCC(N)=O)NC(=O)[C@H](Cc2c[nH]c3c(C)cccc23)NC(=O)[C@H]([C@@H](C)O)NC(=O)[C@H](CCC(N)=O)NC1=O [compound 28]
half-life at 20 μM [1]: 1 h
half-life at 20 μM [3]: 3 h
SIF t½ [5]: 24 h
half-life at 20 μM [6]: 5 h
IC50 [7]: < 1 nM

Molecule: CC(=O)NCCCC[C@H](NC(=O)C1(NC(=O)[C@H](Cc2ccc3ccccc3c2)NC(=O)[C@H](Cc2ccc(OCCN)cc2)NC(=O)[C@@H]2CSCC[C@H](NC(=O)[C@@H](CCCNC(=N)N)NC(C)=O)C(=O)N[C@@H](CCC(N)=O)C(=O)N[C@@H]([C@@H](C)O)C(=O)N[C@@H](Cc3c[nH]c4c(C)cccc34)C(=O)N[C@@H](CCC(N)=O)C(=O)N2)CCOCC1)C(=O)N[C@@H](CC(N)=O)C(=O)N[C@@H](CC(N)=O)C(N)=O [compound 29]
half-life at 20 μM [3]: 1 h
half-life at 20 μM [4]: 3 h
half-life [5]: 21 h
IC50 [7]: < 1 nM

Molecule: CC(=O)NCCCC[C@H](NC(=O)[C@](C)(CC(C)C)NC(=O)[C@H](Cc1ccc2ccccc2c1)NC(=O)[C@H](Cc1ccc(OCCN)cc1)NC(=O)[C@H]1NC(=O)[C@H](CCC(N)=O)NC(=O)[C@H](Cc2c[nH]c3c(C)cccc23)NC(=O)[C@H]([C@@H](C)O)NC(=O)[C@H](CC(N)=O)NC(=O)[C@@H](NC(C)=O)C(C)(C)SSC1(C)C)C(=O)N[C@@H](CC(N)=O)C(=O)NCCC(N)=O [compound 201]
half-life at 20 μM [1]: > 24 h
IC50 [2]: < 10 nM
half-life at 20 μM [3]: 14 h
half-life at 20 μM [4]: < 0.3 h
half-life at 20 μM [6]: 19 h
IC50 [7, 12]: < 1 nM

Molecule: CC(=O)NCCCC[C@H](NC(=O)[C@](C)(CC(C)C)NC(=O)[C@H](Cc1ccc2ccccc2c1)NC(=O)[C@H](Cc1ccc(OCCN)cc1)NC(=O)[C@H]1NC(=O)[C@H](CCC(N)=O)NC(=O)[C@H](Cc2c[nH]c3c(C)cccc23)NC(=O)[C@H]([C@@H](C)O)NC(=O)[C@H](CC(N)=O)NC(=O)[C@@H](NC(C)=O)C(C)(C)SSC1(C)C)C(=O)N1CCC[C@H]1C(=O)NCCC(N)=O [compound 211]
t½: Human Feces anaerobic [8]: 10 h
t½: Monkey Feces anaerobic [9]: >24 h
IC50 [7, 12]: > 100 nM

Molecule: CC(=O)NCCCC[C@H](NC(=O)[C@](C)(CC(C)C)NC(=O)[C@H](Cc1ccc2ccccc2c1)NC(=O)[C@H](Cc1ccc(OCCN)cc1)NC(=O)[C@H]1NC(=O)[C@H](CCC(N)=O)NC(=O)[C@H](Cc2c[nH]c3c(C)cccc23)NC(=O)[C@H]([C@@H](C)O)NC(=O)[C@H](CC(N)=O)NC(=O)[C@@H](NC(C)=O)C(C)(C)SSC1(C)C)C(=O)N[C@@H](CO)C(=O)NCCC(N)=O [compound 221]
half-life at 20 μM [1]: > 24 h
IC50 [2]: < 10 nM
half-life at 20 μM [3]: 9 h
half-life at 20 μM [4]: 2 h
half-life at 20 μM [6]: > 24 h
IC50 [7, 12]: 1 to 10 nM

Molecule: CC(=O)NCCCC[C@H](NC(=O)[C@](C)(CCCCN)NC(=O)[C@H](Cc1ccc2ccccc2c1)NC(=O)[C@H](Cc1ccc(OCCN)cc1)NC(=O)[C@H]1NC(=O)[C@H](CCC(N)=O)NC(=O)[C@H](Cc2c[nH]c3c(C)cccc23)NC(=O)[C@H]([C@@H](C)O)NC(=O)[C@H](CC(N)=O)NC(=O)[C@@H](NC(C)=O)C(C)(C)SSC1(C)C)C(=O)N[C@@H](CC(N)=O)C(=O)NCCC(N)=O [compound 267]
t½: Monkey Feces anaerobic [9]: 4 h
IC50 [7, 12]: < 1 nM

Molecule: CC(=O)NCCCC[C@H](NC(=O)C1(NC(=O)[C@H](Cc2ccc3ccccc3c2)NC(=O)[C@H](Cc2ccc(OCCN)cc2)NC(=O)[C@H]2NC(=O)[C@H](CCC(N)=O)NC(=O)[C@H](Cc3c[nH]c4c(C)cccc34)NC(=O)[C@H]([C@@H](C)O)NC(=O)[C@H](CC(N)=O)NC(=O)[C@@H](NC(C)=O)C(C)(C)SSC2(C)C)CCNCC1)C(=O)N[C@@H](CC(N)=O)C(=O)NCCC(N)=O [compound 275]
t½: Monkey Feces anaerobic [9]: 8 h

Molecule: CC(=O)NCCCC[C@H](NC(=O)[C@](C)(CCCCN)NC(=O)[C@H](Cc1ccc2ccccc2c1)NC(=O)[C@H](Cc1ccc(OCCN)cc1)NC(=O)[C@H]1NC(=O)[C@H](CCCCNC(=O)C(C)(C)N)NC(=O)[C@H](Cc2c[nH]c3c(C)cccc23)NC(=O)[C@H]([C@@H](C)O)NC(=O)[C@H](CC(N)=O)NC(=O)[C@@H](NC(C)=O)C(C)(C)SSC1(C)C)C(=O)N[C@@H](CC(N)=O)C(=O)N[C@H](CC(C)C)C(N)=O [compound 322]
t½: Human Feces anaerobic [8]: >24 h
t½: Monkey Feces anaerobic [9]: >24 h
half-life [5]: 1 h

pStat3 HTRF (nM) IC50 [10]: > 100 nM
B1: SEQ ID NO: 11 (peptide)
peptide: XNTXQXXXXKNN
modifications: Ac-[Pen]-NT-[W(5-Br)]-Gln-[Pen]-[Phe[4-(2-aminoethoxy)]-[2-Nal]-[α-MeLeu]-[Lys(Ac)]-NN-NH2; Pen-Pen disulfide

pStat3 HTRF (nM) IC50 [10]: > 100 nM
B2: SEQ ID NO: 21 (peptide)
peptide: Ac-[Pen]NTWQ[Pen][AEF][Trp(5-OH)][αMeL]K(Ac)NN-NH2
modifications: disulfide 1-6
SMILES: CC(=O)NCCCC[C@H](NC(=O)[C@](C)(CC(C)C)NC(=O)[C@H](Cc1c[nH]c2ccc(O)cc12)NC(=O)[C@H](Cc1ccc(OCCN)cc1)NC(=O)[C@H]1NC(=O)[C@H](CCC(N)=O)NC(=O)[C@H](Cc2c[nH]c3ccccc23)NC(=O)[C@H]([C@@H](C)O)NC(=O)[C@H](CC(N)=O)NC(=O)[C@@H](NC(C)=O)C(C)(C)SSC1(C)C)C(=O)N[C@@H](CC(N)=O)C(=O)N[C@@H](CC(N)=O)C(N)=O

pStat3 HTRF (nM) IC50 [10]: < 1 nM
NK Cell Assay (nM) IC50 [11]: < 10 nM
B3: SEQ ID NO: 6 (peptide)
peptide: XNTXQXXXXKNN
modifications: Ac-[Pen]-NT-[W(7-Me)]-Gln-[Pen]-[Phe[4-(2-aminoethoxy)]-[2-Nal]-[α-MeLeu]-[Lys(Ac)]-NN-NH2; Pen-Pen disulfide

pStat3 HTRF (nM) IC50 [10]: > 100 nM
B4: SEQ ID NO: 9 (peptide)
peptide: XNTXQXXXXKNN
modifications: Ac-[Pen]-NT-[W(5-OMe)]-Gln-[Pen]-[Phe[4-(2-aminoethoxy)]-[2-Nal]-[α-MeLeu]-[Lys(Ac)]-NN-NH2; Pen-Pen disulfide

pStat3 HTRF (nM) IC50 [10]: > 100 nM
B5: SEQ ID NO: 12 (peptide)
peptide: Ac-[Pen]NTWQ[Pen][AEF][Trp(5-Cl)][αMeL]K(Ac)NN-NH2
modifications: disulfide 1-6
SMILES: CC(=O)NCCCC[C@H](NC(=O)[C@](C)(CC(C)C)NC(=O)[C@H](Cc1c[nH]c2ccc(Cl)cc12)NC(=O)[C@H](Cc1ccc(OCCN)cc1)NC(=O)[C@H]1NC(=O)[C@H](CCC(N)=O)NC(=O)[C@H](Cc2c[nH]c3ccccc23)NC(=O)[C@H]([C@@H](C)O)NC(=O)[C@H](CC(N)=O)NC(=O)[C@@H](NC(C)=O)C(C)(C)SSC1(C)C)C(=O)N[C@@H](CC(N)=O)C(=O)N[C@@H](CC(N)=O)C(N)=O

pStat3 HTRF (nM) IC50 [10]: > 100 nM
B6: SEQ ID NO: 10 (peptide)
peptide: XNTXQXXXXKNN
modifications: Ac-[Pen]-NT-[W(5-OH)]-Gln-[Pen]-[Phe[4-(2-aminoethoxy)]-[2-Nal]-[α-MeLeu]-[Lys(Ac)]-NN-NH2; Pen-Pen disulfide

pStat3 HTRF (nM) IC50 [10]: > 100 nM
B7: SEQ ID NO: 15 (peptide)
peptide: Ac-[Pen]NTWQ[Pen][AEF][Trp(4-OMe)][αMeL]K(Ac)NN-NH2
modifications: disulfide 1-6
SMILES: COc1cccc2[nH]cc(C[C@H](NC(=O)[C@H](Cc3ccc(OCCN)cc3)NC(=O)[C@H]3NC(=O)[C@H](CCC(N)=O)NC(=O)[C@H](Cc4c[nH]c5ccccc45)NC(=O)[C@H]([C@@H](C)O)NC(=O)[C@H](CC(N)=O)NC(=O)[C@@H](NC(C)=O)C(C)(C)SSC3(C)C)C(=O)N[C@@](C)(CC(C)C)C(=O)N[C@@H](CCCCNC(C)=O)C(=O)N[C@@H](CC(N)=O)C(=O)N[C@@H](CC(N)=O)C(N)=O)c12
